What is called IC50 is the midpoint of a concentration-inhibition curve.

This experiment concerns the target T1, human TRH-DE (Homo sapiens, UniProt Q9UKU6).
T1 construct: expressed in transfected cells; host or cells: Expi 293 cells (transient expression), membrane fraction
T1 sequence (Q9UKU6 1-1069): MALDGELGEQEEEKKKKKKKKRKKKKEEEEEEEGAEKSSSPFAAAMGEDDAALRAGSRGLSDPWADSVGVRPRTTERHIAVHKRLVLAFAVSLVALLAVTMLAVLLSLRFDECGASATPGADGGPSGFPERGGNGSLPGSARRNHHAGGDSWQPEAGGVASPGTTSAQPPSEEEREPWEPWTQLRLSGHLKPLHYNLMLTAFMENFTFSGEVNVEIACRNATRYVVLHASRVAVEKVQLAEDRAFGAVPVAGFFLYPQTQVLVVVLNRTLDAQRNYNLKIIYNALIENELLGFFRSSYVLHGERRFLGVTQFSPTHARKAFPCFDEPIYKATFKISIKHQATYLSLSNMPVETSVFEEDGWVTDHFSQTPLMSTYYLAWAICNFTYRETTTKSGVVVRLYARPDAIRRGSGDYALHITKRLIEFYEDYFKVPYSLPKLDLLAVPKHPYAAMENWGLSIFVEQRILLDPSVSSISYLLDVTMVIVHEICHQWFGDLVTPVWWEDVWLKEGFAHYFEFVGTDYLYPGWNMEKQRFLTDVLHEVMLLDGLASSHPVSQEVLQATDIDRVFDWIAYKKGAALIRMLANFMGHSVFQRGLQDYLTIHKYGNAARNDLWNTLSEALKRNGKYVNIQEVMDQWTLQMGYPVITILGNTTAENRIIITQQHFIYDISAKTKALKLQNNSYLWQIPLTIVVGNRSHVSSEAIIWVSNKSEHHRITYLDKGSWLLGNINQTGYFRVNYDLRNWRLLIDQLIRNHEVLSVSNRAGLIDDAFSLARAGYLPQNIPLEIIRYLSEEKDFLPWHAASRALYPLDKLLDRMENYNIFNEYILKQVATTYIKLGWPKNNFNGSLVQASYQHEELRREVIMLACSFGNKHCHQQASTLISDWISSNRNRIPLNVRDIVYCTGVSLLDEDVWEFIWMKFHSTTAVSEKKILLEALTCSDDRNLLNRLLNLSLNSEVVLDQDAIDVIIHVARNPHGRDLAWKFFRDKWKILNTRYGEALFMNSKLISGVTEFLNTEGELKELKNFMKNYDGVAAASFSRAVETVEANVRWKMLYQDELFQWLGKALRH
Description: TRH-DE inhibition test (RapidFire MS measurement of product Cyclo (His-Pro)). The note with it: membrane fraction of Expi 293 cells expressing human TRH-DE; 10 μM TRH substrate; room temperature, 2 hours; 16-point concentration test. It counts as biochemical. The method in brief: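 Membrane fraction from Expi 293 cells transiently expressing human TRH-DE, at 4 μg/ml in phosphate buffer pH 7.4 with 200 μM bacitracin, reacted with compound and 10 μM substrate for 2 h at room temperature. Cyclo(His-Pro) measured by RapidFire MS against an isotope internal standard. IC50 from 16-point curves.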
In the case of `C[C@@H]1COc2cc(N3CCC(F)(F)CC3)ncc2C(=O)N1C1CC2(C1)CN(S(=O)(=O)c1ccccc1F)C2` [Example 156], the IC50 was 2 nM. In other words, the single-digit nanomolar range.

Turning to `C[C@@H]1COc2cc(N3CCCC(F)(F)C3)ncc2C(=O)N1C1CC2(C1)CN(S(=O)(=O)c1ccccc1F)C2` [Example 157], the IC50 worked out at 1 nM. To `C[C@@H]1COc2cc(N3CCN(C)CC3)ncc2C(=O)N1C1CC2(C1)CN(S(=O)(=O)c1ccccc1F)C2` [Example 158] belongs 6 nM; to `C[C@@H]1COc2cc(N3CCCCCC3)ncc2C(=O)N1C1CC2(C1)CN(S(=O)(=O)c1ccccc1F)C2` [Example 159], 1 nM. Under `C[C@@H]1COc2cc(N3CCCOCC3)ncc2C(=O)N1C1CC2(C1)CN(S(=O)(=O)c1ccccc1F)C2` [Example 160] stands 1 nM. To `C[C@@H]1CNc2nc(N3C[C@H]4C[C@H]4C3)ccc2C(=O)N1C1CC2(C1)CN(S(=O)(=O)c1ccccc1F)C2` [Example 161] belongs 1 nM; to `C[C@@H]1CNc2nc(N3CC[C@H](F)C3)ccc2C(=O)N1C1CC2(C1)CN(S(=O)(=O)c1ccccc1F)C2` [Example 162, (3R)-4-[2-(2-fluorophenyl)sulfonyl-2-azaspiro[3.3]heptan-6-yl]-8-[(3S)-3-fluoropyrrolidin-1-yl]-3-methyl-2,3-dihydro-H-pyrido[2,3-e][1,4]diazepin-5-one], 2 nM; to `COc1ccc2c(n1)OC[C@@H](C)N(C1CC3(C1)CN(S(=O)(=O)c1ccccc1F)C3)C2=O` [Example 163, (3R)-4-[2-(2-fluorophenyl)sulfonyl-2-azaspiro[3.3]heptan-6-yl]-8-methoxy-3-methyl-2,3-dihydropyrido[3,2-f][1,4]oxazepin-5-one], 8 nM. `COc1cc2c(cn1)C(=O)N(C1CC3(C1)CN(S(=O)(=O)c1ccccc1F)C3)[C@H](C)CO2` [Example 165] gave an IC50 of 2 nM. Under `COc1cnc2c(n1)OC[C@@H](C)N(C1CC3(C1)CN(S(=O)(=O)c1ccccc1F)C3)C2=O` [Example 166] stands 5 nM. With `COc1nc2c(cc1F)C(=O)N(C1CC3(C1)CN(S(=O)(=O)c1ccccc1F)C3)[C@H](C)CO2` [Example 167, (3R)-7-fluoro-4-[2-(2-fluorophenyl)sulfonyl-2-azaspiro[3.3]heptan-6-yl]-8-methoxy-3-methyl-2,3-dihydropyrido[3,2-f][1,4]oxazepin-5-one], inhibition was half-maximal at 16 nM (IC50). This IC50 lies about 3.2-fold higher than the previous one. `C[C@@H]1COc2nc(N3CC[C@H](F)C3)ncc2C(=O)N1C1CC2(C1)CN(S(=O)(=O)c1ccccc1F)C2` [Example 169] registered a half-maximal inhibitory concentration (IC50) of 1 nM. Under `C[C@@H]1COc2c(cnn2C)C(=O)N1C1CC2(C1)CN(S(=O)(=O)c1ccccc1F)C2` [Example 170, (6R)-5-[2-(2-fluorophenyl)sulfonyl-2-azaspiro[3.3]heptan-6-yl]-1,6-dimethyl-6,7-dihydropyrazolo[4,3-f][1,4]oxazepin-4-one] stands 7 nM. In the case of `C[C@@H]1COc2ncc(Br)cc2C(=O)N1C1CC2(C1)CN(S(=O)(=O)c1ccccc1F)C2` [Example 171], it took 7 nM to reach half-maximal inhibition (IC50). As to `C[C@@H]1CCN2CCOC[C@@H]2C(=O)N1C1CC2(C1)CN(S(=O)(=O)c1ccccc1F)C2` [Example 172], it took 110 nM to reach half-maximal inhibition (IC50). The compound `Cc1nc2c(s1)C(=O)N(C1CC3(C1)CN(S(=O)(=O)c1ccccc1F)C3)[C@H](C)CO2` [Example 175] returned an IC50 of 12 nM. `C[C@@H]1COc2nc(C(F)F)sc2C(=O)N1C1CC2(C1)CN(S(=O)(=O)c1ccccc1F)C2` [Example 176]: the IC50 is 13 nM. Under `C[C@@H]1COc2nc(C(C)(F)F)sc2C(=O)N1C1CC2(C1)CN(S(=O)(=O)c1ccccc1F)C2` [Example 178] stands 12 nM; under `C[C@@H]1COc2nc(C3CC3)sc2C(=O)N1C1CC2(C1)CN(S(=O)(=O)c1ccccc1F)C2` [Example 180], 4 nM; under `C[C@@H]1COc2nc(C3(F)CC3)sc2C(=O)N1C1CC2(C1)CN(S(=O)(=O)c1ccccc1F)C2` [Example 181], 6 nM. In turn, `C[C@H]1COc2nc(C3(F)CC3)sc2C(=O)N1C1CC2(C1)CN(S(=O)(=O)c1ccccc1F)C2` [Example 182] registered an IC50 of 154 nM. To `C[C@@H]1COc2nc(C3(C(F)(F)F)CC3)sc2C(=O)N1C1CC2(C1)CN(S(=O)(=O)c1ccccc1F)C2` [Example 183] belongs 5 nM; to `Cc1cc2n(n1)CC[C@@H](C)N(C1CC3(C1)CN(S(=O)(=O)c1ccccc1F)C3)C2=O` [Example 184], 16 nM. In turn, `Cc1nn2c(c1C)C(=O)N(C1CC3(C1)CN(S(=O)(=O)c1ccccc1F)C3)[C@H](C)CC2` [Example 185] yielded an IC50 of 24 nM. Compared with the last compound, the IC50 is about 1.5-fold higher.

In turn, `C[C@@H]1CCn2nc(Cl)cc2C(=O)N1C1CC2(C1)CN(S(=O)(=O)c1ccccc1F)C2` [Example 186] yielded an IC50 of 21 nM. Under `C[C@@H]1CCn2nc(C(C)(F)F)cc2C(=O)N1C1CC2(C1)CN(S(=O)(=O)c1ccccc1F)C2` [Example 187] stands 20 nM.

The compound `C[C@@H]1CCn2nc(C3CC3)cc2C(=O)N1C1CC2(C1)CN(S(=O)(=O)c1ccccc1F)C2` [Example 188] yielded an IC50 of 8 nM. In turn, `C[C@H]1CCn2nc(C3CC3)cc2C(=O)N1C1CC2(C1)CN(S(=O)(=O)c1ccccc1F)C2` [Example 189] yielded an IC50 of 68 nM. Compared with the last compound, the IC50 is about 8.5-fold higher.

In turn, `C[C@@H]1CCn2nc(C3(F)CC3)cc2C(=O)N1C1CC2(C1)CN(S(=O)(=O)c1ccccc1F)C2` [Example 190] had a 50% inhibitory concentration (IC50) of 11 nM. To `C[C@H]1CCn2nc(C3(F)CC3)cc2C(=O)N1C1CC2(C1)CN(S(=O)(=O)c1ccccc1F)C2` [Example 191] belongs 86 nM; to `C[C@@H]1CCn2nc(C3(C(F)(F)F)CC3)cc2C(=O)N1C1CC2(C1)CN(S(=O)(=O)c1ccccc1F)C2` [Example 192], 9 nM. `C[C@@H]1CCn2nc(C(F)(F)F)cc2C(=O)N1C1CC2(C1)CN(S(=O)(=O)c1ccccc1F)C2` [Example 193] gave an IC50 of 25 nM. Against the preceding compound, the IC50 is about 2.8-fold higher. To `C[C@@H]1CCn2ncc(Cl)c2C(=O)N1C1CC2(C1)CN(S(=O)(=O)c1ccccc1F)C2` [Example 194] belongs 36 nM; to `C[C@@H]1CCn2ncc(Br)c2C(=O)N1C1CC2(C1)CN(S(=O)(=O)c1ccccc1F)C2` [Example 195], 35 nM; to `C[C@@H]1CCn2nc(F)c(Br)c2C(=O)N1C1CC2(C1)CN(S(=O)(=O)c1ccccc1F)C2` [Example 196], 15 nM.

For the compound `C[C@@H]1CCn2nc(C3CC3)c(F)c2C(=O)N1C1CC2(C1)CN(S(=O)(=O)c1ccccc1F)C2` [Example 197], the IC50 came to 13 nM. As for `C[C@@H]1CCn2nc3c(c2C(=O)N1C1CC2(C1)CN(S(=O)(=O)c1ccccc1F)C2)CCC3` [Example 198], inhibition was half-maximal at 14 nM (IC50). Under `CCn1ncc2c1OC[C@@H](C)N(C1CC3(C1)CN(S(=O)(=O)c1ccccc1F)C3)C2=O` [Example 199] stands 21 nM; under `C[C@@H]1COc2c(cnn2CC(F)F)C(=O)N1C1CC2(C1)CN(S(=O)(=O)c1ccccc1F)C2` [Example 200], 19 nM. To `C[C@@H]1COc2c(cnn2CC(F)(F)F)C(=O)N1C1CC2(C1)CN(S(=O)(=O)c1ccccc1F)C2` [Example 201] belongs 20 nM; to `C[C@@H]1COc2c(cnn2C2CC2)C(=O)N1C1CC2(C1)CN(S(=O)(=O)c1ccccc1F)C2` [Example 202], 19 nM.

The record behind these values is patent US20260132127A1, “NOVEL SPIRO COMPOUND” (MITSUBISHI TANABE PHARMA CORPORATION, priority 2021, published 2026).
